Patent US20230107538A1, “CYCLOALKYL-CONTAINING CARBOXYLIC ACIDS AND USES THEREOF” (LIMINAL BIOSCIENCES LIMITED, priority 2019, published 2023)

Legend:
[1] = molecular target: T1, human PPARγ ligand binding domain (LBD) (Homo sapiens, UniProt P37231); assay: Cell-based GAL4 PPAR transactivation assay in HEK293 cells, PPARγ; conditions: 24 h
T1 construct: PPARγ (S176-Y477); host or cells: HEK293
T1 sequence (P37231 176-477 isoform P37231-2): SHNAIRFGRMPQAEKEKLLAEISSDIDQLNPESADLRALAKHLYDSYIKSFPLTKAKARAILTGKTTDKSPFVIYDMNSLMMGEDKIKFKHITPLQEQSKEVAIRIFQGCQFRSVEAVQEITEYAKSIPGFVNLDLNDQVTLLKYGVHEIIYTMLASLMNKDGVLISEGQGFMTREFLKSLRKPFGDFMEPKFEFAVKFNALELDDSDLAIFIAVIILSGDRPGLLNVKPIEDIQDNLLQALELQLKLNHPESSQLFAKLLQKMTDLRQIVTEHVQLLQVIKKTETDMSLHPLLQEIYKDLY
Experimental: (§1) The peroxisome proliferator-activated receptors (PPARs), PPARα, PPARδ, and PPARγ are ligand-dependent transcription factors that control expression of several key metabolism-associated genes. The transcriptional activity of representative compounds of formula I to these receptors was assessed using a cell-based GAL4 transactivation assay in HEK293 cells transfected with either PPARα, PPARδ, or PPARγ ligand binding domain (LBD), and was compared to that of the full control agonists GW7647 (PPARα), GW0742 (PPARδ), and rosiglitazone (PPARγ).
(§2) Plasmids: The hinge region and ligand binding domain (LBD) from human PPARα (S167-Y468), PPARδ (S139-Y440) and PPARγ (S176-Y477) were PCR-amplified from a PPARα cDNA clone (cDNA Resource Center, http://www.cdna.org) or from PPARδ1 and PPARγ1 LBD gBlocks™ gene fragments (Integrated DNA Technologies). The PPAR LBD PCR products were inserted in frame with the GAL4 DNA binding domain in the pFN26A(BIND)-hRlu-neo Flexi vector (Promega) at SgfI and PmeI sites to generate GAL4-PPAR-Rluc.
(§3) Cell-based PPAR transactivation assay. HEK293 cells were co-transfected with pGL4.35[luc2P/9XGAL4UAS/Hygro] (Promega) and GAL4-PPAR-Rluc plasmids, and after 24 h of incubation were treated with compounds for 24 h. Luciferase activity was determined with the Dual Glo™ luciferase assay (Promega). Firefly luminescence was normalized to the constitutively expressed Renilla luminescence, and results expressed as fold induction of vehicle control or percentage of reference agonist maximal activity.

[2] = molecular target: T2, human PPARα ligand binding domain (LBD) (Homo sapiens, UniProt Q07869); assay: Cell-based GAL4 PPAR transactivation assay in HEK293 cells, PPARα; conditions: 24 h
T2 construct: human PPARα (S167-Y468); expressed in transfected cells; host or cells: HEK293
T2 sequence (Q07869 167-468): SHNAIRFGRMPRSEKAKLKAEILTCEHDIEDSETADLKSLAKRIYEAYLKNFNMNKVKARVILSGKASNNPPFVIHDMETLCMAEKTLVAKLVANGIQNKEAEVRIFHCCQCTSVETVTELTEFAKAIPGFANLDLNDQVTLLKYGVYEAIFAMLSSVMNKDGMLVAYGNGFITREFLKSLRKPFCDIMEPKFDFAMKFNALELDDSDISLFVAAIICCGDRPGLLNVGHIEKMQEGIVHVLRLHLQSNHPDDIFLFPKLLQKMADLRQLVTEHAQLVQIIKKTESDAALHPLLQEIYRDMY
Experimental: as §1, §2, §3

[3] = molecular target: T3, human PPARδ ligand binding domain (LBD) (Homo sapiens, UniProt Q03181); assay: Cell-based GAL4 PPAR transactivation assay in HEK293 cells, PPARδ; conditions: 24 h
T3 construct: PPARδ (S139-Y440); host or cells: HEK293
T3 sequence (Q03181 139-441 limits assumed): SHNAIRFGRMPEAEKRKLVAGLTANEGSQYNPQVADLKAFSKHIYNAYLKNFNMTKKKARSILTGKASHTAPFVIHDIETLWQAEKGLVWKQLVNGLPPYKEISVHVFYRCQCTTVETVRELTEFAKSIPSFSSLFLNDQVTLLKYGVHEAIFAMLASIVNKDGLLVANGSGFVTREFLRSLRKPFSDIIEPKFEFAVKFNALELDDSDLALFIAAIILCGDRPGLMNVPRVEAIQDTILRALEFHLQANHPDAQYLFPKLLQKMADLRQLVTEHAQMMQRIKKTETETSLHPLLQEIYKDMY
Experimental: as §1, §2, §3

Structure (SMILES) | melting point | PPARγ (GAL4 reporter) % efficacity relative to rosiglitazone [1] | PPARα (GAL4 reporter) % efficacity relative to GW7647 [2] | PPARδ (GAL4 reporter) % efficacity relative to GW0742 [3]
CCCCCCC1C(CC(=O)[O-])C1(Br)Br.[Na+] (stereo not shown) [Compound II, Sodium 2-(2,2-dibromo-3-hexylcyclopropyl)acetate] | 108 to 111 °C | – | – | –
[2H]C1([2H])C(CCCCCC)C1CC(=O)[O-].[Na+] (stereo not shown) | – | 3% | 20% | 2%
CCCCCCC1C(CC(=O)[O-])C1(C)C.[Na+] (stereo not shown) [drawing 323] | – | 4% | 33% | −6%
